Results as given in patent US20260240879A1, “TOPICAL PALA THERAPY FOR CANCER” (priority 2023, published 2026).
Read-outs that look alike come from different tables or passages of the source.

Columns and labels:
[1] = tested on: UVB-induced NMSC (AK lesions and SCC tumors); assay: UVB-induced NMSC mouse model: tumor number, area, growth phenotype and grade; conditions: for total tumors at endpoint: vehicle 12.5±2.4
[2] = mouse, in vivo
Procedure: The topical formulations of 2% PALA/50% acetone/10% glycerol, 5% imiquimod (IMQ), 5% 5-FU (5-FU), vehicle (50% acetone/10% glycerol) control, and Aquaphor were applied (~0.05 g/mouse) daily to the dorsal skin of SKH1-Elite female mice (8 weeks of age; n=5/group) for 7 days. […] Mice were monitored daily for weight change, skin appearance, and signs of distress. […] At harvest, spleen weights and colon lengths were measured.

[3] = tested on: UVB-induced skin tumors; assay: Immunostaining of excised skin tumors (cell cycle markers, antimicrobial peptides, immune cells); format: in vivo, SKH1-Elite mice
[4] = tested on: chemical carcinogen-induced skin cancer; conditions: 2% (w/v) PALA in 50% acetone/10% glycerol, topical, 4 weeks
Procedure: SKH1-Elite female mice were treated topically with DMBA for 2 weeks and then treated topically with TPA thrice a week for 8 weeks to induce skin cancer. Mice were then randomized into treatment groups and treated topically with vehicle (50% acetone/10% glycerol) or 2% (w/v) PALA for 4 weeks. A. Quantitation of mean change in tumor burden per mouse during the treatment period as a percentage of the tumor number on week 9. B. Weight change during the treatment period presented as percentage of baseline weight. C. Levels of the liver and systemic inflammation marker serum amyloid A (SAA) at endpoint. D. Measurements of colon length at endpoint as a gross measure of intestinal pathology. Means±SEM, n=8-9/group. Significance determined by 2-way ANOVA with Sidak's multiple comparisons test or unpaired […] t-test. All p values <0.05 are shown on the graphs.

[5] = target: aspartate transcarbamylase (Escherichia coli, UniProt P0A786); conditions: transition-state analog inhibitor; cited from earlier work
[6] = Toxicity markers in UVB-tumor-bearing mice under topical treatment (weight, SAA, colon length, fecal LCN2)
Procedure: Serum amyloid A levels were measured in plasma samples using the Mouse SAA ELISA kit (E-90SAA, Immunology Consultants Laboratory, Inc.) according to manufacturer's instructions. Lipocalin-2 (LCN2) was quantified from pre-weighed stool samples homogenized in 0.5 mL PBS using the Mouse Lipocalin-2/NGAL DuoSet ELISA (DY1857) and DuoSet Ancillary Reagent Kit 2 (DY008, R&D Systems).

[7] = tested on: chemical carcinogen-induced skin cancer; assay: Chemical carcinogen (DMBA/TPA)-induced skin cancer model, C57BL/6; format: in vivo, C57BL/6 female mice; conditions: 2% (w/v) PALA/Aquaphor, topical, 4 weeks
Excerpt: Means±SEM, n=5-6/group. Significance determined by 2-way ANOVA

[8] = tested on: B16 melanoma; assay: B16 melanoma orthotopic xenograft model; format: in vivo,  female mice
Procedure: FIG. 17: Topical PALA treatment retards melanoma growth and sensitizes melanoma to anti-checkpoint inhibitor therapy in a B16 melanoma orthotopic xenograft model. C57BU/6 female mice (n=4-5/group) were injected subcutaneously bilaterally with B16 melanoma cells (10^5 cells/flank; 8-10 injections total). Tumor volume was measured by caliper every 2-3 days by personnel blinded to treatment group. Data from palpable tumors are graphed as mean±SEM. […] On day 12 post-injection, mice were treated topically with either vehicle (AP0536/29/02) or 1% (w/w) PALA (AP0536/29/02) daily for 12 days. […] On day 7 post-injection, mice were treated topically with either vehicle (AP0536/29/02) or 2% (w/w) PALA (AP0536/29/02) daily for 5 days. Tumors were harvested on day 14 post-injection and tumor lysates analyzed by immunoblot for PD-L1 protein levels and quantified by image densitometry using ImageJ relative to tubulin levels (loading control). Mean±SEM graphed. C. […] On day 7 post-injection, mice were treated topically with either vehicle (AP0536/29/02) or 2% (w/w) PALA (AP0536/29/02) daily for 5 days. Mice were also treated with either isotype or anti-PD-L1/atezolizumab antibodies (100 μg/mouse) every 48 hours intraperitoneally from day 7 to day 19. Significant differences were determined by 2-way ANOVA with Dunnett's multiple comparison test. ***p<0.001

[9] = 2% (w/w) PALA (AP0536/29/02), daily, 4 weeks
[10] = individual tumors, PALA n = 48, vehicle 7.3%

Sequence of aspartate transcarbamylase (P0A786 2-311): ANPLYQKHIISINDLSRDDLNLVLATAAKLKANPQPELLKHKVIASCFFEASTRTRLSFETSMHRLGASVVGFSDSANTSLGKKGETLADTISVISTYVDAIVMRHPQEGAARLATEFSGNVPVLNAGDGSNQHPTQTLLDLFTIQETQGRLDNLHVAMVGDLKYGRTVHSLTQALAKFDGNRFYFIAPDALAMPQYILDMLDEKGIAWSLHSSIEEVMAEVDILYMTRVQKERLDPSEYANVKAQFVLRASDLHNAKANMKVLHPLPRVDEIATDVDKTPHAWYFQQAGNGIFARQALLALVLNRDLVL

O=C(O)CC(NC(=O)CP(=O)(O)O)C(=O)O [PALA, N-phosphonacetyl-L-aspartate]
total tumors at endpoint ([1]; 1% PALA in 50% acetone/10% glycerol, daily topical, 10 weeks): 11.7±3.8
average tumor burden, % of original size at endpoint ([1]; 1% PALA, daily topical, 10 weeks, vehicle 286.4%±62.6): 275.0%±84.7
shape of dose-response, average number of tumors per mouse at end of treatment ([1]; 1%, 2%, 5% PALA in Aquaphor 10 weeks, 4% (w/w) PALA 4 weeks): U-shaped dose-response curves
growth profile of individual tumors [1, 9]: lower percentage of continually growing tumors
mean tumor surface area per tumor (average tumor size) [1, 9]: significantly smaller average tumor size than either vehicle or 5% IMQ treated mice
endpoint tumor grade ([1]; 2% (w/w) PALA (AP0536/29/02), daily, 4 weeks, vs vehicle or 5% IMQ): fewer squamous cell carcinoma (SCC) and SCC in situ tumors
total tumors at endpoint ([1]; 2% PALA in 50% acetone/10% glycerol, daily topical, 10 weeks): 3.83±0.6
tumor levels of interleukin-1β ([1]; 2% PALA or 5% IMQ, daily, 4 weeks): elevated
mean tumor cross-sectional area, endpoint value ([1]; 2% PALA, daily topical, 10 weeks, vehicle 4.4, p=0.003): 2.4 mm^2
mean surface tumor area, endpoint value ([1]; 2% PALA, daily topical, 10 weeks, vehicle 197.1, p<0.0001): 30.3 mm^2
average tumor burden, % of original size at endpoint ([1]; 2% PALA, daily topical, 10 weeks, vehicle 286.4%±62.6, 252.3%±34.3): 99.2%±20.5
tumor levels of interferon-al ([1]; 2% PALA, daily, 4 weeks, compared with 5% IMQ): elevated only in 2% PALA treated mice
total tumors at endpoint ([1]; 5% PALA in 50% acetone/10% glycerol, daily topical, 10 weeks): 6.20±1.8
average tumor burden, % of original size at endpoint ([1]; 5% PALA, daily topical, 10 weeks, vehicle 286.4%±62.6): 91.6%±13.4
concentrations demonstrating anti-tumor activity ([1]; 10 weeks of daily topical treatment): ≥ 2%
tumors shrinking after an initial period of growth or continually reducing in size ([1]; PALA treated tumors, 10 weeks): 97.9%
proportion of AK/SCC in situ and benign lesions ([1]; PALA-treated mice, vehicle 31%, p<0.001): 62%
prevalence of well differentiated SCC and poorly differentiated SCC ([1]; PALA-treated mice, vehicle 69%, p<0.0001): 38%
Total Tumor Number: Poorly Differentiated SCC ([1]; excised tumors, 2% PALA daily 10 weeks, vehicle 25): 6
Total Tumor Number: Benign/ Hyperplastic ([1]; excised tumors, vehicle 0): 8
Total Tumor Number: AK/SCC in situ ([1]; excised tumors, vehicle 28): 23
Total Tumor Number: Well Differentiated SCC ([1]; excised tumors, vehicle 37): 12
Tumor Growth Outcome: Same, % [1, 10]: 0 (0%)
Tumor Growth Outcome: Smaller, % [1, 10]: 4.1%
Tumor Growth Phenotype: No Change, % [1, 10]: 0 (0%)
Tumor Growth Phenotype: Continual Shrinkage, % ([1]; individual tumors, PALA n = 48, vehicle 17.0%): 29.1%
Tumor Growth Outcome: Resolved, % ([1]; individual tumors, PALA n = 48, vehicle 26.8%): 83.3%
Tumor Growth Phenotype: Grow then Shrink, % ([1]; individual tumors, PALA n = 48, vehicle 29.2%): 68.7%
Tumor Growth Phenotype: Continual Growth, % ([1]; individual tumors, PALA n = 48, vehicle 46.3%): 2.0%
Tumor Growth Outcome: Larger, % ([1]; individual tumors, PALA n = 48, vehicle 58.5%): 12.5%
tumor burden and total tumor area ([1]; reformulated 2% (w/v) PALA (AP0536/29/02), daily, 6 weeks): effective in reducing tumor burden and total tumor area
Tumor Prevalence: Benign/ Hyperplastic ([1]; vehicle 0%): 13%
Tumor Area: Benign/ Hyperplastic, mean (SEM) ([1]; vehicle 0 (0)): 1.4 (0.3)
Tumors / Mouse: Benign/ Hyperplastic, mean (SEM) ([1]; vehicle 0 (0)): 0.5 (0.6)
Tumor Cross Sectional Area: AK/SCC in situ, mean (SEM) ([1]; vehicle 1.5 (0.7)): 1.1 (1.0) mm^2
Tumors / Mouse: Poorly Differentiated SCC, mean (SEM) ([1]; vehicle 2.0 (1.6)): 0.5 (0.9)
Tumors / Mouse: AK/SCC in situ, mean (SEM) ([1]; vehicle 2.3 (2.1)): 1.9 (1.2)
Tumors / Mouse: Well Differentiated SCC, mean (SEM) ([1]; vehicle 3.0 (1.8)): 1.0 (1.1)
Tumor Area: AK/SCC in situ, mean (SEM) ([1]; vehicle 3.4 (6.6)): 2.3 (2.0)
Tumor Cross Sectional Area: Well Differentiated SCC, mean (SEM) ([1]; vehicle 3.7 (2.0)): 3.1 (2.2) mm^2
Tumor Cross Sectional Area: Poorly Differentiated SCC, mean (SEM) ([1]; vehicle 9.2 (5.8)): 9.8 (6.4) mm^2
Tumor Area: Well Differentiated SCC, mean (SEM) ([1]; vehicle 10.7 (18.0)): 7.5 (4.5)
Tumor Prevalence: Poorly Differentiated SCC ([1]; vehicle 28%): 13%
Tumor Prevalence: AK/SCC in situ ([1]; vehicle 31%): 49%
Tumor Prevalence: Well Differentiated SCC ([1]; vehicle 41%): 25%
Tumor Area: Poorly Differentiated SCC, mean (SEM) ([1]; vehicle 59.5 (77.3)): 62.6 (70.0)
Tumor Cross Sectional Area: Benign/ Hyperplastic, mean (SEM) ([1]; vehicle n/a): 1.7 (2.0) mm^2
SAA levels on day 7 [2]: no changes
colon length / gross intestinal pathology on day 7 [2]: no changes
skin histology on day 7 [2]: no changes
skin irritation apparent (day) [2]: no skin irritation
spleen weight on day 7 [2]: no changes
CD8+ cytotoxic T cells in tumors ([3]; PALA compared to vehicle-treated controls): elevated numbers
F4/80+ macrophages in tumors ([3]; PALA relative to vehicle-treated controls): increased numbers
LL-37+ cells in tumor samples ([3]; PALA vs vehicle): significantly increased
numbers of MPO+ cells (neutrophils) in tumors ([3]; PALA vs vehicle): the same
overall number of CD3+ T cells within tumor tissue ([3]; PALA vs vehicle): the same
total area of DefB14 staining within tumors ([3]; PALA vs vehicle): not different
phospho-histone H3+ cells ([3]; excised tumors, 2% PALA, vehicle 3.1%, p=0.0067): 4.9%
Ki67+ cells per tumor ([3]; excised tumors, 2% PALA, vehicle 10.4%, p=0.005): 24.6%
cyclin D1+ cells per tumor ([3]; excised tumors, 2% PALA, vehicle 48.9%, p=0.0329): 39.4%
cyclin B1+ or cyclin A2+ cell populations ([3]; excised tumors, PALA vs vehicle): No differences
change in tumor burden [4]: trends of efficacy in reducing tumor burden
potency as inhibitor of aspartate transcarbamylase [5]: nanomolar potency
skin irritation or weight loss ([6]; 1, 2 or 5% (w/v) PALA in 50% acetone/10% glycerol, daily topical, 10 weeks): no apparent skin irritation or weight loss
circulating levels of serum amyloid A (SAA) at endpoint ([6]; 1, 2 or 5% (w/v) PALA vs vehicle, daily topical, 10 weeks, trends of higher SAA at 1% and 5%): No significant differences
gross colon pathology and colon lengths at harvest ([6]; 1, 2 or 5% (w/v) PALA, daily topical, 10 weeks): None of the mice had any apparent gross colon pathology or significant differences in colon lengths
change in weight from the start of treatment ([6]; 2% (w/w) PALA (AP0536/29/02) vs 5% 5-FU and 5% IMQ, daily, 4 weeks): maintain weight is better than 5-FU or IMQ treated mice
weight, SAA levels, gross intestinal pathology, LCN2 levels vs vehicle ([6]; 2% PALA, daily topical, 10 weeks): no significant differences
fecal lipocalin-2 (LCN2) at endpoint ([6]; 5% PALA, daily topical, 10 weeks, vehicle 18.1±6.0, p=0.032): 186.8±121.1
concentration up to which topical PALA is well tolerated ([6]; 10 weeks of daily treatment): up to 5 % (w/v)
change in tumor burden [7]: effective in reducing tumor burden
tumor growth (tumor volume) ([8]; 1% (w/w) PALA (AP0536/29/02), topical daily for 12 days from day 12 post-injection): retards tumor growth
PD-L1 protein levels in tumor lysates ([8]; 2% (w/w) PALA (AP0536/29/02), topical daily for 5 days): reduces expression of the checkpoint inhibitor PD-L1
response to anti-PD-L1 therapy ([8]; 2% (w/w) PALA daily for 5 days plus anti-PD-L1/atezolizumab 100 μg/mouse i.p. every 48 hours): sensitizes B16 melanoma to anti-PD-L1 therapy
